Reference: ChEMBL document CHEMBL3867430, “Novel 3,4-seco bile acid diamides as selective anticancer proliferation and migration agents” (Eur J Med Chem, 2016)

Columns and labels:
[1] = Antiproliferative activity against human PC3M cells after 48 hrs by SRB assay; format: functional, cell-based; conditions: PC-3M
[2] = Antiproliferative activity against human HT-29 cells after 48 hrs by SRB assay; format: functional, cell-based; conditions: HT-29, 48 h
[3] = Antiproliferative activity against human ES2 cells after 48 hrs by SRB assay; format: functional, cell-based; conditions: ES-2, 48 h
[4] = Antiproliferative activity against HAF cells after 48 hrs by SRB assay; format: cell-based; conditions: Homo sapiens
[5] = Selectivity index, ratio of IC50 for HAF cells to IC50 for human PC3M cells; format: functional
[6] = Selectivity index, ratio of IC50 for HAF cells to IC50 for human HT-29 cells; format: functional
[7] = Selectivity index, ratio of IC50 for HAF cells to IC50 for human ES2 cells; format: functional

| SMILES | IC50 [1] [µM] | IC50 [2] [µM] | IC50 [3] [µM] | IC50 [4] [µM] | Ratio IC50 [5] | Ratio IC50 [6] | Ratio IC50 [7] |
| --- | --- | --- | --- | --- | --- | --- | --- |
| C=C(C)C1CC[C@H]2[C@@H]3CC[C@H]([C@H](C)CCC(=O)N4CCN(CC)CC4)[C@@]3(C)CC[C@@H]2[C@@]1(C)CCC(=O)N1CCN(CC)CC1 (some centres undefined) | 8.47 | 6.19 | 12.5 | – | – | – | – |
| C=C(C)C1CC[C@H]2[C@@H]3CC[C@H]([C@H](C)CCC(=O)N4CCN(c5ccccc5)CC4)[C@@]3(C)CC[C@@H]2[C@@]1(C)CCC(=O)N1CCN(c2ccccc2)CC1 (some centres undefined) | > 80 | > 80 | > 80 | – | – | – | – |
| C=C(C)C1CC[C@H]2[C@@H]3CC[C@H]([C@H](C)CCC(=O)NC(C)C)[C@@]3(C)CC[C@@H]2[C@@]1(C)CCC(=O)NC(C)C (some centres undefined) | 7.41 | > 80 | > 80 | > 50 | >6.7 | – | – |
| C=C(C)C1CC[C@H]2[C@@H]3CC[C@H]([C@H](C)CCC(=O)NCc4ccccc4)[C@@]3(C)CC[C@@H]2[C@@]1(C)CCC(=O)NCc1ccccc1 (some centres undefined) | 13.6 | 13 | > 80 | > 50 | >3.7 | >3.9 | – |
| C[C@H](CCC(=O)O)[C@H]1CC[C@H]2[C@@H]3CCC(C(C)(C)O)[C@](C)(CCC(=O)O)[C@H]3CC[C@]12C (some centres undefined) | > 80 | > 80 | > 80 | – | – | – | – |
| C=C(C)C1CC[C@H]2[C@@H]3CC[C@H]([C@H](C)CCCN4CCN(C)CC4)[C@@]3(C)CC[C@@H]2[C@@]1(C)CCCN1CCN(C)CC1 (some centres undefined) | > 80 | > 80 | > 80 | – | – | – | – |
| C=C(C)C1CC[C@H]2[C@@H]3CC[C@H]([C@H](C)CCC(=O)O)[C@@]3(C)CC[C@@H]2[C@@]1(C)CCC(=O)N1CCN(C)CC1 (some centres undefined) | > 80 | > 80 | 53.9 | – | – | – | – |
| C=C(C)C1CC[C@H]2[C@@H]3CC[C@H]([C@H](C)CCC(N)=O)[C@@]3(C)CC[C@@H]2[C@@]1(C)CCC(N)=O (some centres undefined) | 39.2 | 36.7 | 36.9 | – | – | – | – |
| C=C(C)C1CC[C@H]2[C@@H]3CC[C@H]([C@H](C)CCC(=O)n4cccn4)[C@@]3(C)CC[C@@H]2[C@@]1(C)CCC(=O)n1cccn1 (some centres undefined) | > 80 | > 80 | > 80 | – | – | – | – |
| C=C(C)C1CC[C@H]2[C@@H]3CC[C@H]([C@H](C)CCC(=O)O)[C@@]3(C)CC[C@@H]2[C@@]1(C)CCC(=O)O (some centres undefined) | > 80 | > 80 | > 80 | – | – | – | – |
| C=C(C)C1CC[C@H]2[C@@H]3CC[C@H]([C@H](C)CCC(=O)N4CCN(C5CCCCC5)CC4)[C@@]3(C)CC[C@@H]2[C@@]1(C)CCC(=O)N1CCN(C2CCCCC2)CC1 (some centres undefined) | 12 | 3.17 | 17 | – | – | – | – |
| C=C(C)C1CC[C@H]2[C@@H]3CC[C@H]([C@H](C)CCC(=O)N4CCN(c5ccccc5F)CC4)[C@@]3(C)CC[C@@H]2[C@@]1(C)CCC(=O)N1CCN(c2ccccc2F)CC1 (some centres undefined) | > 80 | > 80 | > 80 | – | – | – | – |
| C#CCNC(=O)CC[C@@H](C)[C@H]1CC[C@H]2[C@@H]3CCC(C(=C)C)[C@](C)(CCC(=O)NCC#C)[C@H]3CC[C@]12C (some centres undefined) | 50.4 | 85.5 | 3.11 | 61.9 | – | – | 20 |
| C[C@H](CCC(=O)O)[C@H]1CC[C@H]2[C@@H]3C[C@H](O)[C@@H]4C[C@H](O)CC[C@]4(C)[C@H]3CC[C@]12C [HYODEOXYCHOLIC_ACID] | > 80 | > 80 | > 80 | – | – | – | – |
| C[C@H](CCC(=O)O)[C@H]1CC[C@H]2[C@@H]3CC[C@@H]4C[C@H](O)CC[C@]4(C)[C@H]3C[C@H](O)[C@]12C [DEOXYCHOLIC ACID] | > 80 | > 80 | > 80 | – | – | – | – |
| C=C(C)C1CC[C@H]2[C@@H]3CC[C@H]([C@H](C)CCC(=O)N4CCCC4)[C@@]3(C)CC[C@@H]2[C@@]1(C)CCC(=O)N1CCCC1 (some centres undefined) | 32.4 | 23.7 | 9.25 | – | – | – | – |
| CC(C)C1CC[C@H]2[C@@H]3CC[C@H]([C@H](C)CCC(=O)N4CCN(C)CC4)[C@@]3(C)CC[C@@H]2[C@@]1(C)CCC(=O)N1CCN(C)CC1 (some centres undefined) | 12.7 | 13.8 | 8.2 | – | – | – | – |
| C=C(C)C1CC[C@H]2[C@@H]3CC[C@H]([C@H](C)CCC(=O)OC)[C@@]3(C)CC[C@@H]2[C@@]1(C)CCC(=O)N1CCN(C)CC1 (some centres undefined) | 41.8 | 13.7 | 31.7 | – | – | – | – |
| C=C(C)C1CC[C@H]2[C@@H]3CC[C@H]([C@H](C)CCC(=O)N(CC)CC)[C@@]3(C)CC[C@@H]2[C@@]1(C)CCC(=O)N(CC)CC (some centres undefined) | 11.1 | 6.88 | 14.2 | 56.2 | 5.1 | 8.1 | 4 |
| C=C(C)C1CC[C@H]2[C@@H]3CC[C@H]([C@H](C)CCC(=O)N4CCN(C(C)C)CC4)[C@@]3(C)CC[C@@H]2[C@@]1(C)CCC(=O)N1CCN(C(C)C)CC1 (some centres undefined) | 1.66 | 9.91 | 6.68 | 27 | 16.3 | 2.7 | 4 |
| C[C@H](CCC(=O)O)[C@H]1CC[C@H]2[C@@H]3[C@H](O)C[C@@H]4C[C@H](O)CC[C@]4(C)[C@H]3CC[C@]12C [CHENODIOL] | > 80 | > 80 | > 80 | – | – | – | – |
| C=C(C)C1CC[C@H]2[C@@H]3CC[C@H]([C@H](C)CCC(=O)NC4CC4)[C@@]3(C)CC[C@@H]2[C@@]1(C)CCC(=O)NC1CC1 (some centres undefined) | 17 | > 80 | > 80 | – | – | – | – |
| C=C(C)C1CC[C@H]2[C@@H]3CC[C@H]([C@H](C)CCC(=O)N4CCN(C)CC4)[C@@]3(C)CC[C@@H]2[C@@]1(C)CCC(=O)N1CCN(C)CC1 (some centres undefined) | 5.08 | 1.93 | 3.63 | 15.5 | 3 | 8 | 4.3 |
| C=C(C)C1CC[C@H]2[C@@H]3CC[C@H]([C@H](C)CCC(=O)N4CCOCC4)[C@@]3(C)CC[C@@H]2[C@@]1(C)CCC(=O)N1CCOCC1 (some centres undefined) | 22.5 | 16.6 | 29.6 | – | – | – | – |
| C=C(C)C1CC[C@H]2[C@@H]3CC[C@H]([C@H](C)CCC(=O)Nc4ccc(F)cc4)[C@@]3(C)CC[C@@H]2[C@@]1(C)CCC(=O)Nc1ccc(F)cc1 (some centres undefined) | > 80 | > 80 | > 80 | – | – | – | – |
